Assay results taken from PMC10721329, “Quisinostat is a brain-penetrant radiosensitizer in glioblastoma” (JCI Insight, 2023).
Where “and” joins values, the source holds several entries; their conditions need not be identical. Identical values can stand only once.

Assays:
[1] = system: HDAC1; conditions: cited from earlier work
[2] = system: GB126 cells; assay: QST + IR sulforhodamine B cytotoxicity assay; assay type: cell-based, human; conditions: replicates
Experimental: (§1) There is preclinical evidence that HDACis may be effective in enhancing the sensitivity of tumor cells to IR therapy ([24], [28]–[31]). We hypothesized that the accumulation of DNA damage induced by QST, in combination with IR, may synergistically reduce GSC viability. To examine this hypothesis, we treated 2 cell lines (BT145 and GB126) with increasing nanomolar doses of QST (10–1000 nM) and increasing doses of IR (2–4 Gy) (Figure 4, A and B). […] We then analyzed our combinatorial dose-response cell viability data using SynergyFinder, an application that assigns synergy scores using various major reference models ([32]).
(§2) GSCs were seeded in laminin-coated tissue culture–treated 96-well plates (clear bottom, white plate; Corning) at a density of 1000–5000 cells per well (cell line dependent) in GSC media. U87-MG were seeded using their normal growth conditions without laminin (10% bovine calf serum in DMEM). All cells were incubated at 37°C and allowed to adhere overnight. The next day, cells were treated with incremental concentrations of QST (Selleckchem; 0, 10, 25, 50, 100, 250, 500, and 1000 nM) diluted in media. Cells treated without QST were treated with DMSO diluted in media. Following treatment with QST, cells were grown for 3 to 5 days (cell line dependent), and cell viability was measured and quantified. All cell viability measurements were performed using the CellTiter-Glo luminescent cell viability assay (Promega) following the manufacturer’s instructions. For the sulforhodamine B colorimetric assay for cytotoxicity, the protocol was performed as described elsewhere ([33]). All cell viability results represent the mean of at least 3 biological replicates, each containing 3 technical replicates.

[3] = system: BT145 cells; assay: QST + IR sulforhodamine B cytotoxicity assay; assay type: cell-based, human; conditions: replicates
Experimental: as §1, §2

[4] = cited from earlier work
[5] = system: GB126 cells; assay: γ-H2AX foci immunofluorescence; assay type: cell-based, human; conditions: 86 nM QST, value per individual nucleus, image series of replicate experiments
Experimental: (§3) To test the DNA-damaging effects of QST in GBM cells, we treated 2 independent GSC lines with QST for 72 hours at the IC50 and analyzed changes in the levels of phosphorylated histone H2AX (γ-H2AX), a marker for DNA double-strand breaks (DSBs) ([27]). […]
(§4) anti-GAPDH (1:1000, Cell Signaling Technologies, 97166), rabbit anti-cleaved poly (ADP-ribose) polymerase Asp 214 (1:1000, Cell Signaling, 9541), rabbit anti-BDNF (1:1000, Abcam, ab108319) and mouse anti- β-actin (1:1000, Bio-Rad, MCA5775GA). Membranes were probed with fluorophore-conjugated anti-mouse or anti-rabbit secondary antibodies (1:10,000; ThermoFisher Scientific). Western blots were developed using the LI-COR Odyssey CLx imaging system (LI-COR) and quantitated using the Image Studio Lite software. All Western blots are representative images from a minimum of 3 biological replicates.
(§5) Cells were grown as adherent cultures on laminin -coated glass coverslips (Thermo Fisher Scientific) in GSC media. Twenty-four hours after plating, the cells were treated with QST or DMSO diluted in GSC media. Seventy-two hours after treatment, cells were fixed with 4% paraformaldehyde for 13 minutes at room temperature. Cells were washed with phosphate-buffered saline (PBS) and subsequently permeabilized and blocked with 5% normal goat serum (Sigma Aldrich) and 0.2% Triton X -100 in PBS (blocking solution) for 30 minutes at room temperature. […]
(§6) SuperFrost Plus microscope slides using Fluoroshield Mounting Medium containing DAPI (Abcam). […] The fraction of Ki67- and Cleaved Caspase 3– positive cells were counted from 5 independent images from each condition. The mean and standard deviation were calculated from 3 biological replicates for all control and QST-treated […]
(§7) For cell cycle analysis following short -term DMSO or QST treatment in GSC cultures, approximately 1 million cells were harvested, washed in cold 1× PBS once, and fixed with 3–4 mL of ice cold 70% ethanol, added dropwise while vortexing. […] Data from all the samples were obtained using a Fortessa flow cytometer (BD Biosciences) and analyzed using the FlowJo software (TreeStar). […]

[6] = system: BT145 cells; assay: γ-H2AX foci immunofluorescence; assay type: cell-based, human; conditions: BT 145, 75 nM QST, single nuclei
Experimental: as §3, §4, §5, §6, §7

[7] = Quisinostat log[nm] 1, 0 Gy, control 0 Gy = 1
[8] = Quisinostat log[nm] 1.39794, 0 Gy
[9] = Quisinostat log[nm] 1.39794, 2 Gy
[10] = Quisinostat log[nm] 1.39794, 4 Gy
[11] = Quisinostat log[nm] 1.69897, 0 Gy
[12] = Quisinostat log[nm] 1.69897, 2 Gy
[13] = Quisinostat log[nm] 1.69897, 4 Gy

Structure (SMILES): Cn1cc(CNCC2CCN(c3ncc(C(=O)NO)cn3)CC2)c2ccccc21 [QST, quisinostat]
- SRB assay, relative signal ([2]; Quisinostat log[nm] 1, 2 Gy): 0.4678 and 0.5322 and 0.5047
- SRB assay, relative signal ([2]; Quisinostat log[nm] 1, 4 Gy): 0.3918 and 0.337 and 0.3993
- SRB assay, relative signal [2, 8]: 0.6332 and 0.6836 and 0.5963
- SRB assay, relative signal [2, 9]: 0.4122 and 0.4783 and 0.4726
- SRB assay, relative signal [2, 11]: 0.574 and 0.5854 and 0.5737
- SRB assay, relative signal ([2]; Quisinostat log[nm] 2, 0 Gy): 0.4806 and 0.4569 and 0.5515
- SRB assay, relative signal [3, 8]: 0.5611 and 0.5715 and 0.6072
- SRB assay, relative signal [3, 11]: 0.3909 and 0.4995 and 0.4801
- maximum-tolerated dose ([4]; patients, given 3 times weekly): 12 mg
- hematologic toxicities (grade 1 and 2), share of patients ([4]; phase I trials): < 5%
- Number of foci/ Nucleus (γH2AX) [5]: 12
- Number of foci/ Nucleus (ƴH2AX) [6]: 12
- ƴH2AX Number of foci/ Nucleus ([6]; replicates n=1 to n=3): 12
